From PubChem BioAssay AID248 (DTP/NCI, 2004)
Values joined by “and” are separate entries in the source; they are usually repeats but may differ in a detail not shown here. Equal values may be shown once. Inconclusive results and toxic doses are left out. Rule as the data show it: active = T/C of 150% or more; inactive = T/C below 125%.

System: L1210 leukemia ip in BDF1 mice, survival T/C
Assay: NCI In Vivo Anticancer Drug Screen. Data for tumor model L1210 Leukemia (intraperitoneal) in B6D2F1 (BDF1) mice
Settings: endpoint: mean survival time, higher = longer survival
Procedure, shortened: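 Survival endpoint. Drug-treated group vs vehicle group, expressed as T divided by C. Tumor passaged by transplantation.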

[1] = dose: 100.0 mg/kg/injection, schedule: Q01DX001 (ip), vehicle: Klucel (hydroxypropylcellulose) (HPC)
[2] = dose: 100.0 mg/kg/injection, schedule: Q04DX003 (ip), vehicle: Klucel (hydroxypropylcellulose) (HPC)
[3] = dose: 200.0 mg/kg/injection, schedule: Q01DX001 (ip), vehicle: Klucel (hydroxypropylcellulose) (HPC)
[4] = dose: 200.0 mg/kg/injection, schedule: Q04DX003 (ip), vehicle: Klucel (hydroxypropylcellulose) (HPC)
[5] = dose: 400.0 mg/kg/injection, schedule: Q04DX003 (ip), vehicle: Klucel (hydroxypropylcellulose) (HPC)
[6] = dose: 100.0 mg/kg/injection, schedule: Q01DX009 (ip), vehicle: Klucel (hydroxypropylcellulose) (HPC)
[7] = dose: 100.0 mg/kg/injection, schedule: Q04DX002 (ip), vehicle: Klucel (hydroxypropylcellulose) (HPC)
[8] = dose: 200.0 mg/kg/injection, schedule: Q01DX009 (ip), vehicle: Klucel (hydroxypropylcellulose) (HPC)
[9] = dose: 200.0 mg/kg/injection, schedule: Q04DX002 (ip), vehicle: Klucel (hydroxypropylcellulose) (HPC)
[10] = dose: 400.0 mg/kg/injection, schedule: Q01DX009 (ip), vehicle: Klucel (hydroxypropylcellulose) (HPC)
[11] = dose: 400.0 mg/kg/injection, schedule: Q04DX002 (ip), vehicle: Klucel (hydroxypropylcellulose) (HPC)
[12] = dose: 50.0 mg/kg/injection, schedule: Q01DX009 (ip), vehicle: Klucel (hydroxypropylcellulose) (HPC)
[13] = dose: 100.0 mg/kg/injection, schedule: Q01DX009 (ip), vehicle: saline with Tween-80
[14] = dose: 200.0 mg/kg/injection, schedule: Q01DX009 (ip), vehicle: saline with Tween-80
[15] = dose: 100.0 mg/kg/injection, schedule: Q01DX001 (ip), vehicle: carboxymethylcellulose (CMC)
[16] = dose: 200.0 mg/kg/injection, schedule: Q01DX001 (ip), vehicle: carboxymethylcellulose (CMC)
[17] = dose: 400.0 mg/kg/injection, schedule: Q01DX001 (ip), vehicle: carboxymethylcellulose (CMC)

Measured: T/C

O=C1OCCN1S(=O)(=O)c1ccc([N+](=O)[O-])cc1
inactive: dose: 3.12 mg/kg/injection, schedule: Q01DX009 (ip), vehicle: Klucel (hydroxypropylcellulose) (HPC) 94 % of control | dose: 6.25 mg/kg/injection, schedule: Q01DX009 (ip), vehicle: Klucel (hydroxypropylcellulose) (HPC) 93 % of control | dose: 12.5 mg/kg/injection, schedule: Q01DX009 (ip), vehicle: Klucel (hydroxypropylcellulose) (HPC) 94 % of control | [1] 86 % of control | [2] 97 % of control | [3] 91 % of control | [4] 92 % of control | [5] 88 % of control

C=CCc1ccc(OC(=O)NC(C)C)c(OC)c1
inactive: [1] 89 % of control | [6] 97 % of control and 88 % of control | [7] 98 % of control and 100 % of control | [2] 93 % of control | [3] 101 % of control | [8] 111 % of control and 91 % of control | [9] 98 % of control and 112 % of control | [4] 97 % of control | dose: 400.0 mg/kg/injection, schedule: Q01DX001 (ip), vehicle: Klucel (hydroxypropylcellulose) (HPC) 100 % of control | [10] 88 % of control | [11] 112 % of control and 119 % of control | [5] 101 % of control

CC1CCN(C(=O)CCCCl)CC1
inactive: dose: 100.0 mg/kg/injection, schedule: Q04DX002 (ip), vehicle: saline 104 % of control | dose: 200.0 mg/kg/injection, schedule: Q04DX002 (ip), vehicle: saline 114 % of control

CC(=O)Nc1ccccc1O
inactive: dose: 50.0 mg/kg/injection, schedule: Q04DX002 (ip), vehicle: Klucel (hydroxypropylcellulose) (HPC) 94 % of control | dose: 75.0 mg/kg/injection, schedule: Q01DX009 (ip), vehicle: saline 95 % of control | [7] 94 % of control and 102 % of control | dose: 150.0 mg/kg/injection, schedule: Q01DX009 (ip), vehicle: saline 113 % of control | [9] 102 % of control | dose: 300.0 mg/kg/injection, schedule: Q01DX009 (ip), vehicle: saline 89 % of control | [11] 113 % of control

CCC1(O)C(=O)OCc2c1cc(C(=O)OC)n(C)c2=O (centres undefined)
inactive: dose: 25.0 mg/kg/injection, schedule: Q01DX001 (ip), vehicle: saline with Tween-80 97 % of control | dose: 50.0 mg/kg/injection, schedule: Q01DX001 (ip), vehicle: saline with Tween-80 95 % of control | dose: 100.0 mg/kg/injection, schedule: Q01DX001 (ip), vehicle: saline with Tween-80 97 % of control | dose: 200.0 mg/kg/injection, schedule: Q01DX001 (ip), vehicle: saline with Tween-80 98 % of control

CCOC(=O)/C(C#N)=C/NN
inactive: dose: 6.25 mg/kg/injection, schedule: Q04DX003 (ip), vehicle: saline 100 % of control | dose: 12.5 mg/kg/injection, schedule: Q04DX003 (ip), vehicle: saline 96 % of control | dose: 25.0 mg/kg/injection, schedule: Q04DX003 (ip), vehicle: saline 96 % of control

CCC(=O)Oc1ccccc1C(=O)O
inactive: dose: 25.0 mg/kg/injection, schedule: Q01DX009 (ip), vehicle: Klucel (hydroxypropylcellulose) (HPC) 98 % of control | [12] 98 % of control | [6] 103 % of control

NC(=O)c1cc(Br)ccc1O
inactive: [12] 89 % of control | [6] 92 % of control | [8] 95 % of control

CCOC(/C=C(\C)C(C)=O)OCC
inactive: dose: 100.0 mg/kg/injection, schedule: Q04DX003 (ip), vehicle: saline 97 % of control | dose: 200.0 mg/kg/injection, schedule: Q04DX003 (ip), vehicle: saline 98 % of control | dose: 400.0 mg/kg/injection, schedule: Q04DX003 (ip), vehicle: saline 95 % of control

CCOC(OCC)C(=O)C(C#N)c1ccc(Cl)c(Cl)c1 (centres undefined)
inactive: dose: 5.0 mg/kg/injection, schedule: Q01DX001 (ip), vehicle: saline 109 % of control | dose: 10.0 mg/kg/injection, schedule: Q01DX001 (ip), vehicle: saline 100 % of control | dose: 20.0 mg/kg/injection, schedule: Q01DX001 (ip), vehicle: saline 105 % of control | dose: 40.0 mg/kg/injection, schedule: Q01DX001 (ip), vehicle: saline 97 % of control | dose: 80.0 mg/kg/injection, schedule: Q01DX001 (ip), vehicle: saline 97 % of control

O=C(CBr)NCCCCc1ccc(C(=O)O)cc1
inactive: dose: 10.0 mg/kg/injection, schedule: Q01DX001 (ip), vehicle: carboxymethylcellulose (CMC) 92 % of control | dose: 20.0 mg/kg/injection, schedule: Q01DX001 (ip), vehicle: carboxymethylcellulose (CMC) 100 % of control | dose: 40.0 mg/kg/injection, schedule: Q01DX001 (ip), vehicle: carboxymethylcellulose (CMC) 103 % of control

CCCCCCC(=O)C1C(c2ccc(N(C)C)cc2)CC(=O)C(CCCCC)C1c1ccc(N(C)C)cc1 (centres undefined)
inactive: [13] 86 % of control | dose: 100.0 mg/kg/injection, schedule: Q04DX003 (ip), vehicle: saline with Tween-80 89 % of control | [14] 95 % of control | dose: 200.0 mg/kg/injection, schedule: Q04DX003 (ip), vehicle: saline with Tween-80 90 % of control | dose: 400.0 mg/kg/injection, schedule: Q01DX009 (ip), vehicle: saline with Tween-80 95 % of control | dose: 400.0 mg/kg/injection, schedule: Q04DX003 (ip), vehicle: saline with Tween-80 92 % of control

CN(C)CCCNc1nc(Cl)nc(Cl)n1
inactive: dose: 50.0 mg/kg/injection, schedule: Q01DX009 (ip), vehicle: saline 96 % of control | dose: 100.0 mg/kg/injection, schedule: Q01DX009 (ip), vehicle: saline 92 % of control | dose: 200.0 mg/kg/injection, schedule: Q01DX009 (ip), vehicle: saline 96 % of control

CN(CCCl)c1ccc(C2N(Cc3ccccc3)c3ccccc3N2Cc2ccccc2)cc1
inactive: dose: 6.2 mg/kg/injection, schedule: Q01DX001 (ip), vehicle: carboxymethylcellulose (CMC) 94 % of control | dose: 12.5 mg/kg/injection, schedule: Q01DX001 (ip), vehicle: carboxymethylcellulose (CMC) 103 % of control

N#CC1c2ccccc2CCN1C(=O)c1ccccc1 (centres undefined)
inactive: [15] 98 % of control | [16] 98 % of control | [17] 93 % of control

c1ccc(-n2nc3c(c2OCCN2CCCC2)CCCc2ccccc2-3)cc1
inactive: [13] 104 % of control

NCCCP(c1ccccc1)c1ccccc1
inactive: dose: 75.0 mg/kg/injection, schedule: Q01DX001 (ip), vehicle: saline 105 % of control | dose: 150.0 mg/kg/injection, schedule: Q01DX001 (ip), vehicle: saline 92 % of control

CCN(CC)S(=O)(=O)c1ccc(C(=O)O)cc1
inactive: [6] 101 % of control | [2] 101 % of control | [8] 104 % of control | [4] 105 % of control | [10] 103 % of control | [5] 92 % of control

C=CCC1CC2CC(C1C)C2(C)C (centres undefined)
inactive: dose: 50.0 mg/kg/injection, schedule: Q01DX009 (ip), vehicle: saline with Tween-80 93 % of control | [13] 101 % of control | [14] 93 % of control

Cc1c2ccnc(-c3ccccc3)c2cc2c1[nH]c1ccccc12
inactive: dose: 31.3 mg/kg/injection, schedule: Q01DX Z (ip), vehicle: other 98 % of control | dose: 62.5 mg/kg/injection, schedule: Q01DX Z (ip), vehicle: other 101 % of control | [15] 108 % of control | dose: 125.0 mg/kg/injection, schedule: Q01DX015 (oral), vehicle: carboxymethylcellulose (CMC) 102 % of control | dose: 125.0 mg/kg/injection, schedule: Q01DX Z (ip), vehicle: other 101 % of control | [16] 103 % of control | dose: 250.0 mg/kg/injection, schedule: Q01DX015 (oral), vehicle: carboxymethylcellulose (CMC) 93 % of control | dose: 250.0 mg/kg/injection, schedule: Q01DX Z (ip), vehicle: other 91 % of control | [17] 97 % of control | dose: 500.0 mg/kg/injection, schedule: Q01DX015 (oral), vehicle: carboxymethylcellulose (CMC) 93 % of control
